Assay results reported in ChEMBL document CHEMBL3885881, “DrugMatrix”.

Species on record: Rattus norvegicus
Test: DrugMatrix - Regimen: Daily Repeat
Format: toxicity, organism-based, Sprague-Dawley
Set-up: regimen Daily Repeat, gender Male, age 6-8 weeks
Conditions: in vivo, po, route oral GAVAGE, vehicle 100 % WATER; for ABSOLUTE BASOPHIL / ABSOLUTE EOSINOPHIL / ABSOLUTE LYMPHOCYTE / ABSOLUTE MONOCYTE / ABSOLUTE SEGMENTED NEUTROPHIL / BASOPHIL / EOSINOPHIL / ERYTHROCYTE COUNT / HEMATOCRIT / HEMOGLOBIN / LEUKOCYTE COUNT / LYMPHOCYTE / MEAN CORPUSCULAR HEMOGLOBIN / MEAN CORPUSCULAR HEMOGLOBIN CONCENTRATION / MEAN CORPUSCULAR VOLUME / MONOCYTE / NEUTROPHIL / NUCLEATED RED BLOOD CELLS / PLATELET COUNT: tissue Blood; for ALANINE AMINOTRANSFERASE / ALBUMIN / ALKALINE PHOSPHATASE / ASPARTATE AMINOTRANSFERASE / BLOOD UREA NITROGEN / CARBON DIOXIDE / CHLORIDE / CHOLESTEROL / CREATINE PHOSPHOKINASE / CREATININE / GLUCOSE / LACTATE DEHYDROGENASE / LIPASE / PHOSPHORUS / POTASSIUM / SODIUM / TOTAL BILIRUBIN / TOTAL PROTEIN / URIC ACID: tissue Plasma
[1] = 30 mg/kg, 72 h, dose level Low, time 3 day
[2] = 30 mg/kg, 120 h, dose level Low, time 5 day
[3] = 1000 mg/kg, 72 h, dose level High, time 3 day
[4] = 1000 mg/kg, 120 h, dose level High, time 5 day

CCCCc1nc(Cl)c(CO)n1Cc1ccc(-c2ccccc2-c2nn[nH]n2)cc1 [LOSARTAN]
ABSOLUTE BASOPHIL [1]: 0 CELLS/uL
ABSOLUTE EOSINOPHIL [1]: 0 CELLS/uL
ABSOLUTE LYMPHOCYTE [1]: 14016.67 CELLS/uL
ABSOLUTE MONOCYTE [1]: 389.33 CELLS/uL
ABSOLUTE SEGMENTED NEUTROPHIL [1]: 894 CELLS/uL
BASOPHIL [1]: 0%
EOSINOPHIL [1]: 0%
ERYTHROCYTE COUNT [1]: 5.45 x10E6/uL
HEMATOCRIT [1]: 35.03%
HEMOGLOBIN [1]: 13.17 G/DL
LEUKOCYTE COUNT [1]: 15.3 x10E3/uL
LYMPHOCYTE [1]: 91.33%
MEAN CORPUSCULAR HEMOGLOBIN [1]: 24.17 pg
MEAN CORPUSCULAR HEMOGLOBIN CONCENTRATION [1]: 37.6 G/DL
MEAN CORPUSCULAR VOLUME [1]: 64.2 fL
MONOCYTE [1]: 2.67%
NEUTROPHIL [1]: 6%
NUCLEATED RED BLOOD CELLS [1]: 0 /100WBC
PLATELET COUNT [1]: 1281.67 x10E3/uL
ALANINE AMINOTRANSFERASE [1]: 42 u/L
ALBUMIN [1]: 4.4 G/DL
ALKALINE PHOSPHATASE [1]: 318.67 u/L
ASPARTATE AMINOTRANSFERASE [1]: 77.33 u/L
BLOOD UREA NITROGEN [1]: 20 mg/dL
CARBON DIOXIDE [1]: 25 mmol/L
CHLORIDE [1]: 103 MEQ/L
CHOLESTEROL [1]: 78 mg/dL
CREATINE PHOSPHOKINASE [1]: 190.67 u/L
CREATININE [1]: 0.23 mg/dL
GLUCOSE [1]: 178 mg/dL
LACTATE DEHYDROGENASE [1]: 89.33 u/L
LIPASE [1]: 9.33 u/L
PHOSPHORUS [1]: 13.6 mg/dL
POTASSIUM [1]: 7.08 MEQ/L
SODIUM [1]: 145.07 MEQ/L
TOTAL BILIRUBIN [1]: 0.17 mg/dL
TOTAL PROTEIN [1]: 6.1 G/DL
URIC ACID [1]: 2.83 mg/dL
ABSOLUTE BASOPHIL [2]: 0 CELLS/uL
ABSOLUTE EOSINOPHIL [2]: 152.67 CELLS/uL
ABSOLUTE LYMPHOCYTE [2]: 13450.67 CELLS/uL
ABSOLUTE MONOCYTE [2]: 299.67 CELLS/uL
ABSOLUTE SEGMENTED NEUTROPHIL [2]: 963.67 CELLS/uL
BASOPHIL [2]: 0%
EOSINOPHIL [2]: 1.33%
ERYTHROCYTE COUNT [2]: 5.55 x10E6/uL
HEMATOCRIT [2]: 35.3%
HEMOGLOBIN [2]: 13.53 G/DL
LEUKOCYTE COUNT [2]: 14.87 x10E3/uL
LYMPHOCYTE [2]: 90%
MEAN CORPUSCULAR HEMOGLOBIN [2]: 24.37 pg
MEAN CORPUSCULAR HEMOGLOBIN CONCENTRATION [2]: 38.33 G/DL
MEAN CORPUSCULAR VOLUME [2]: 63.6 fL
MONOCYTE [2]: 2%
NEUTROPHIL [2]: 6.67%
NUCLEATED RED BLOOD CELLS [2]: 0.33 /100WBC
PLATELET COUNT [2]: 1227.33 x10E3/uL
ALANINE AMINOTRANSFERASE [2]: 55 u/L
ALBUMIN [2]: 4.43 G/DL
ALKALINE PHOSPHATASE [2]: 365.33 u/L
ASPARTATE AMINOTRANSFERASE [2]: 83.67 u/L
BLOOD UREA NITROGEN [2]: 26 mg/dL
CARBON DIOXIDE [2]: 23.67 mmol/L
CHLORIDE [2]: 109 MEQ/L
CHOLESTEROL [2]: 82 mg/dL
CREATINE PHOSPHOKINASE [2]: 302.33 u/L
CREATININE [2]: 0.19 mg/dL
GLUCOSE [2]: 156.67 mg/dL
LACTATE DEHYDROGENASE [2]: 189 u/L
LIPASE [2]: 9.5 u/L
PHOSPHORUS [2]: 12.1 mg/dL
POTASSIUM [2]: 6.02 MEQ/L
SODIUM [2]: 144.45 MEQ/L
TOTAL BILIRUBIN [2]: 0.0667 mg/dL
TOTAL PROTEIN [2]: 6.2 G/DL
URIC ACID [2]: 1.5 mg/dL
ABSOLUTE BASOPHIL [3]: 0 CELLS/uL
ABSOLUTE EOSINOPHIL [3]: 0 CELLS/uL
ABSOLUTE LYMPHOCYTE [3]: 16308 CELLS/uL
ABSOLUTE MONOCYTE [3]: 476 CELLS/uL
ABSOLUTE SEGMENTED NEUTROPHIL [3]: 949.33 CELLS/uL
BASOPHIL [3]: 0%
EOSINOPHIL [3]: 0%
ERYTHROCYTE COUNT [3]: 5.24 x10E6/uL
HEMATOCRIT [3]: 33.6%
HEMOGLOBIN [3]: 12.73 G/DL
LEUKOCYTE COUNT [3]: 17.73 x10E3/uL
LYMPHOCYTE [3]: 92.33%
MEAN CORPUSCULAR HEMOGLOBIN [3]: 24.3 pg
MEAN CORPUSCULAR HEMOGLOBIN CONCENTRATION [3]: 37.9 G/DL
MEAN CORPUSCULAR VOLUME [3]: 64.13 fL
MONOCYTE [3]: 2.67%
NEUTROPHIL [3]: 5%
NUCLEATED RED BLOOD CELLS [3]: 0 /100WBC
PLATELET COUNT [3]: 1384.67 x10E3/uL
ALANINE AMINOTRANSFERASE [3]: 41.67 u/L
ALBUMIN [3]: 4.4 G/DL
ALKALINE PHOSPHATASE [3]: 365.67 u/L
ASPARTATE AMINOTRANSFERASE [3]: 77.33 u/L
BLOOD UREA NITROGEN [3]: 39.33 mg/dL
CARBON DIOXIDE [3]: 21.67 mmol/L
CHLORIDE [3]: 106.33 MEQ/L
CHOLESTEROL [3]: 96 mg/dL
CREATINE PHOSPHOKINASE [3]: 290.67 u/L
CREATININE [3]: 0.26 mg/dL
GLUCOSE [3]: 165.33 mg/dL
LACTATE DEHYDROGENASE [3]: 296 u/L
LIPASE [3]: 10 u/L
PHOSPHORUS [3]: 12.6 mg/dL
POTASSIUM [3]: 6.89 MEQ/L
SODIUM [3]: 144.3 MEQ/L
TOTAL BILIRUBIN [3]: 0.2 mg/dL
TOTAL PROTEIN [3]: 5.93 G/DL
URIC ACID [3]: 1.73 mg/dL
ABSOLUTE BASOPHIL [4]: 0 CELLS/uL
ABSOLUTE EOSINOPHIL [4]: 186 CELLS/uL
ABSOLUTE LYMPHOCYTE [4]: 17950.67 CELLS/uL
ABSOLUTE MONOCYTE [4]: 194 CELLS/uL
ABSOLUTE SEGMENTED NEUTROPHIL [4]: 1069.33 CELLS/uL
BASOPHIL [4]: 0%
EOSINOPHIL [4]: 1%
ERYTHROCYTE COUNT [4]: 5.34 x10E6/uL
HEMATOCRIT [4]: 32.67%
HEMOGLOBIN [4]: 12.67 G/DL
LEUKOCYTE COUNT [4]: 19.4 x10E3/uL
LYMPHOCYTE [4]: 92.67%
MEAN CORPUSCULAR HEMOGLOBIN [4]: 23.73 pg
MEAN CORPUSCULAR HEMOGLOBIN CONCENTRATION [4]: 38.77 G/DL
MEAN CORPUSCULAR VOLUME [4]: 61.27 fL
MONOCYTE [4]: 1%
NEUTROPHIL [4]: 5.33%
NUCLEATED RED BLOOD CELLS [4]: 0 /100WBC
PLATELET COUNT [4]: 1450.33 x10E3/uL
ALANINE AMINOTRANSFERASE [4]: 48.67 u/L
ALBUMIN [4]: 4.4 G/DL
ALKALINE PHOSPHATASE [4]: 418.33 u/L
ASPARTATE AMINOTRANSFERASE [4]: 72 u/L
BLOOD UREA NITROGEN [4]: 59.67 mg/dL
CARBON DIOXIDE [4]: 24.33 mmol/L
CHLORIDE [4]: 110.67 MEQ/L
CHOLESTEROL [4]: 80.67 mg/dL
CREATINE PHOSPHOKINASE [4]: 480.33 u/L
CREATININE [4]: 0.37 mg/dL
GLUCOSE [4]: 175.33 mg/dL
LACTATE DEHYDROGENASE [4]: 59.33 u/L
LIPASE [4]: 9 u/L
PHOSPHORUS [4]: 11.37 mg/dL
POTASSIUM [4]: 7.02 MEQ/L
SODIUM [4]: 146.03 MEQ/L
TOTAL BILIRUBIN [4]: 0.13 mg/dL
TOTAL PROTEIN [4]: 5.9 G/DL
URIC ACID [4]: 1.83 mg/dL
